pEC50, pIC50: −log10 of the molar value.
Columns and labels:
[1] = Selectivity index, ratio of CC50 for cytotoxicity against human MT4 cells assessed as reduction in cell viability by MTT assay to EC50 for antiviral activity against wild type HIV-1 IIIB infected in human MT4 cells assessed as protection against virus-induced cytopathic effect; assay type: toxicity, cell-based; conditions: read-out: Ratio CC50/EC50
[2] = tested on: Human immunodeficiency virus 1; assay: Antiviral activity against wild type HIV-1 IIIB infected in human MT4 cells assessed as protection against virus-induced cytopathic effect incubated for 5 days by MTT assay; assay type: functional, organism-based; conditions: Human immunodeficiency virus 1, IIIB, MT4, 120 h
[3] = Cytotoxicity against human MT4 cells assessed as reduction in cell viability by MTT assay; assay type: toxicity, cell-based
[4] = tested on: Human immunodeficiency virus 1; assay: Antiviral activity against NNRTI-resistant HIV-1 harboring Y188L mutant infected in human MT4 cells assessed as protection against virus-induced cytopathic effect by MTT assay; assay type: functional, organism-based; conditions: Human immunodeficiency virus 1, MT4
[5] = tested on: Human immunodeficiency virus 1; assay: Antiviral activity against NNRTI-resistant HIV-1 harboring E138K mutant infected in human MT4 cells assessed as protection against virus-induced cytopathic effect by MTT assay; assay type: functional, organism-based; conditions: Human immunodeficiency virus 1, MT4
[6] = tested on: Human immunodeficiency virus 1; assay: Antiviral activity against NNRTI-resistant HIV-1 harboring Y181C mutant infected in human MT4 cells assessed as protection against virus-induced cytopathic effect by MTT assay; assay type: functional, organism-based; conditions: Human immunodeficiency virus 1, MT4
[7] = target: Human immunodeficiency virus type 1 reverse transcriptase (Human immunodeficiency virus 1, UniProt Q72547); assay: Inhibition of wild type HIV-1 Reverse transcriptase assessed as reduction of biotin-dUTP incorporation into […] using ABTS as substrate preincubated with compound for 1 hr followed by substrate addition in presence of biotin-labeled dNTPs by ELISA analysis
[8] = tested on: Human immunodeficiency virus 1; assay: Antiviral activity against NNRTI-resistant HIV-1 harboring K103N mutant infected in human MT4 cells assessed as protection against virus-induced cytopathic effect by MTT assay; assay type: functional, organism-based; conditions: Human immunodeficiency virus 1, MT4
[9] = tested on: Human immunodeficiency virus 1; assay: Antiviral activity against NNRTI-resistant HIV-1 harboring RES056 mutant infected in human MT4 cells assessed as protection against virus-induced cytopathic effect by MTT assay; assay type: functional, organism-based; conditions: Human immunodeficiency virus 1, MT4
[10] = tested on: Human immunodeficiency virus 1; assay: Antiviral activity against NNRTI-resistant HIV-1 harboring L100I mutant infected in human MT4 cells assessed as protection against virus-induced cytopathic effect by MTT assay; assay type: functional, organism-based; conditions: Human immunodeficiency virus 1, MT4

SMILES	selectivity ratio [1]	pEC50 [2]	CC50 [3] [µM]	pEC50 [4]	pEC50 [5]	pEC50 [6]	pIC50 [7]	pEC50 [8]	pEC50 [9]	pEC50 [10]
Cn1c(Cn2ccc(C(F)(F)F)c(Oc3cc(Cl)cc(-c4cnc5ccccc5c4)c3)c2=O)n[nH]c1=O	133	6.36	58.1							
Cn1c(Cn2ccc(C(F)(F)F)c(Oc3cc(Cl)cc(-c4ccccc4)c3)c2=O)n[nH]c1=O	505	6.43	187							
Cn1c(Cn2ccc(C(F)(F)F)c(Oc3cc(Cl)cc(-c4ccsc4)c3)c2=O)n[nH]c1=O	2130	7.39	87.2							
Cn1c(Cn2ccc(C(F)(F)F)c(Oc3cc(Cl)cc(-c4ccc(N)cc4)c3)c2=O)n[nH]c1=O	213	6.80	33.7							
Cn1c(Cn2ccc(C(F)(F)F)c(Oc3cc(Cl)cc(-c4ccc(F)cc4)c3)c2=O)n[nH]c1=O	161	6.71	31.3							
Cn1c(Cn2ccc(C(F)(F)F)c(Oc3cc(Cl)cc(-c4cnc(N)nc4)c3)c2=O)n[nH]c1=O	19	6.77	3.24							
Cn1c(Cn2ccc(C(F)(F)F)c(Oc3cc(Cl)cc(-c4ccco4)c3)c2=O)n[nH]c1=O	311	6.72	59.1							
Cn1c(Cn2ccc(C(F)(F)F)c(Oc3cc(Cl)cc(-c4ccoc4)c3)c2=O)n[nH]c1=O	205	6.55	57.4							
Cn1c(Cn2ccc(C(F)(F)F)c(Oc3cc(Cl)cc(-c4ccc([N+](=O)[O-])cc4)c3)c2=O)n[nH]c1=O	1460	7.51	45.4							
Cn1c(Cn2ccc(C(F)(F)F)c(Oc3cc(Cl)cc(-c4ccc(N)nc4)c3)c2=O)n[nH]c1=O	154	6.68	32.1							
Cn1c(Cn2ccc(C(F)(F)F)c(Oc3cc(Cl)cc(-c4cccnc4)c3)c2=O)n[nH]c1=O	210	7.21	12.8							
Cn1c(Cn2ccc(C(F)(F)F)c(Oc3cc(Cl)cc(-c4ccc(O)cc4)c3)c2=O)n[nH]c1=O	45	6.44	16.2							
Cn1c(Cn2ccc(C(F)(F)F)c(Oc3cc(Cl)cc(-c4ccc(C(N)=O)cc4)c3)c2=O)n[nH]c1=O	284	6.58	74.2							
Cn1c(Cn2ccc(C(F)(F)F)c(Oc3cc(Cl)cc(C(=O)O)c3)c2=O)n[nH]c1=O	6	5.27	34.2							
Cn1c(Cn2ccc(C(F)(F)F)c(Oc3cc(Cl)cc(-c4ccc(C#N)cc4)c3)c2=O)n[nH]c1=O	109	7.33	5.13							
Cn1c(Cn2ccc(C(F)(F)F)c(Oc3cc(Cl)cc(Br)c3)c2=O)n[nH]c1=O	14200	8.00	142	5.87	7.55	7.64	7.52	7.66	6.65	7.92
Cn1c(Cn2ccc(C(F)(F)F)c(Oc3cc(Cl)cc(-c4cccs4)c3)c2=O)n[nH]c1=O	48	6.02	45.8							
Cn1c(Cn2ccc(C(F)(F)F)c(Oc3cc(Cl)cc(C(N)=O)c3)c2=O)n[nH]c1=O	14	5.69	28.5							
Cn1c(Cn2ccc(C(F)(F)F)c(Oc3cc(Cl)cc(-c4ccc(Cl)cc4)c3)c2=O)n[nH]c1=O		7.96	124	5.83	7.55	7.52	7.70	7.72	6.40	7.85
Cn1c(Cn2ccc(C(F)(F)F)c(Oc3cc(Cl)cc(C#N)c3)c2=O)n[nH]c1=O [DORAVIRINE]		8.10	> 294	5.68	7.43	7.57		7.85	6.89	7.89
